Test system: neurocytes
Assay: Cell survival of neurocytes after serum removal, with or without 0.1% 2-mercaptoethanol, 72 hours
Format: cell-based, rat
From the text: A rat pregnant for […] was cervically dislocated to sacrifice the experimental animal and the abdomen of the experimental animal was excised in an U-shape to expose the uterus in which a fetus was located. Thereafter, the fetus was taken out from the uterus and then inserted into a fetus washing medium and then washed three times. Only the head of the fetus was cut and then inserted into the fetus washing medium to wash the head three times and then the cranium of the fetus was broken to separate the brain therefrom. A knife was used to cut the cortex of the brain and tissues of the cortex were thoroughly chopped, which were then collected in the already prepared fetus washing medium. After centrifuging at 400 g for 4 minutes, a supernatant was removed therefrom and then 0.025% of trypsin and 10 ml of DNase1 were added to the pellets to break the pellets. The mixture was stored in an incubator for 15 minutes.
Thereafter, 15 ml of a cell culture medium was added thereto again, centrifuged at 400 g for 4 minutes, a supernatant was removed therefrom to obtain pellets, which were washed twice with 6 ml of a washing medium (including DNase 1), and then centrifuged again at 400 g for 4 minutes. After the centrifugation, the supernatant solution was removed again to obtain pellets, 10 ml of the culture medium was added to the pellets and a mixture obtained therefrom was mixed with 10 ul of trypan blue to count the cells by using a hemocytometer. In a 24-well plate, 500 ul of the cells were seeded in each well and then cultured for 48 hours. Thereafter, the culture medium was removed from the well plate for stabilization, a new cell culture medium and 5 uM Ara-c (cytosine arabinoside, sigma, C1768) were added thereto, cultured for […], the culture medium was removed again after 24 hours, a new culture medium was added thereto, and then cultured in an incubator having conditions of […], 5% CO2, and a temperature of 37° C. for the next experiment.
In a 96-well plate, cells were inoculated at a density of 2×10^4 cells/well and in an amount of 200 ul for each well. In this regard, cell confluence was set to be about 70% to about 80%. After 24 hours, when the cells have stabilized, a 26 or 28 gauge needle was used to remove a pre-existing medium from the wells. […]

EPO: erythropoietin; the EPO used was an Eporon injection (Dong-A Pharmaceuticals, Korea)
cell survival rate (EPO 1 IU/ml, serum removed, no 2-mercaptoethanol, 72 hours, normal culture = 100%): 41.64% | cell survival rate (EPO 1 U/ml, after exposure to 0.1% 2-mercaptoethanol for 18 hours): 6.98% | cell survival rate (EPO 10 IU/ml, serum removed, no 2-mercaptoethanol, 72 hours, normal culture = 100%): 48.57% | cell survival rate (EPO 10 U/ml, after exposure to 0.1% 2-mercaptoethanol for 18 hours): 11.70%
